Measurements taken from ChEMBL document CHEMBL1201862, “PubChem BioAssay data set” (2004).
Activity calls are given as the source filed them.

Legend:
[1] = biological target: T1, Short transient receptor potential channel 4 (Mus musculus, UniProt Q9QUQ5); assay: block of DAMGO-driven TRPC4 calcium entry – cell-based, HEK293 TRPC4/mu-opioid, Fluo-4 calcium, dose response (AID 434942); assay type: functional;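 further: potency of inhibitors blocking the TRPC4 calcium response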
T1 sequence (Q9QUQ5 whole entry): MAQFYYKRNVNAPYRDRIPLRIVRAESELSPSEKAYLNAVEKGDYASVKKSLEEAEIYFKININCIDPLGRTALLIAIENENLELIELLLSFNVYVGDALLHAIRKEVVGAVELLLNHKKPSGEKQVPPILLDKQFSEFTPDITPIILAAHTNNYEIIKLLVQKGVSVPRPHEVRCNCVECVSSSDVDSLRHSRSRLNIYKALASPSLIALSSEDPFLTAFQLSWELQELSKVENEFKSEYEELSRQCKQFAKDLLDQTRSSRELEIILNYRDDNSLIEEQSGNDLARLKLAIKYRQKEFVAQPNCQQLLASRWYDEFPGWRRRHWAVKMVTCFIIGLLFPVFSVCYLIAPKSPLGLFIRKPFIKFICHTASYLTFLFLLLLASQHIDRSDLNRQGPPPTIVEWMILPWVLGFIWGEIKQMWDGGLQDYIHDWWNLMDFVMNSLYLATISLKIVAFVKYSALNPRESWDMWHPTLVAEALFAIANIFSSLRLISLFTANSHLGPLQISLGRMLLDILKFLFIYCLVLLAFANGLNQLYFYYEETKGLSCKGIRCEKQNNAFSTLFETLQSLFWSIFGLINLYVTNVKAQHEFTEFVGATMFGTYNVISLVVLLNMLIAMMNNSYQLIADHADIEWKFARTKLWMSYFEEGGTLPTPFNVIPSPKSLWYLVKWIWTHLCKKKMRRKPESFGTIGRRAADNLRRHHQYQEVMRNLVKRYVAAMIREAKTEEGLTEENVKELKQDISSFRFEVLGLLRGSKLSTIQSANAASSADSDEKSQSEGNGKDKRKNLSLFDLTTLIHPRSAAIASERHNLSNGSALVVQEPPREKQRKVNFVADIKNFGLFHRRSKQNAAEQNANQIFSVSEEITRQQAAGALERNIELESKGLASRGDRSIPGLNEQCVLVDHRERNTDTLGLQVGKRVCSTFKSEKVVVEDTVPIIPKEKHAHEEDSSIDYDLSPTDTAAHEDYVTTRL

[2] = biological target: Eukaryotic translation initiation factor 4E (Mus musculus, UniProt P63073); assay: blockers of eIF4G binding by eIF4E – biochemical, TR-FRET, dose response (AID 855); assay type: functional;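 further: potency for disrupting eIF4E binding to eIF4GI seen as loss of FRET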
Chain of Eukaryotic translation initiation factor 4E (P63073 whole entry): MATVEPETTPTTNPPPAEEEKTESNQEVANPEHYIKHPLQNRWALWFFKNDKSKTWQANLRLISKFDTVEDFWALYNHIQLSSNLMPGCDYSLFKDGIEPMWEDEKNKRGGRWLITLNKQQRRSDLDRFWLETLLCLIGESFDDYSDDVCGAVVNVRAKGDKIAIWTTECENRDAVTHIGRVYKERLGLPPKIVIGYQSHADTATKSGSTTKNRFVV

[3] = A Cell Based Secondary Assay To Explore Cytotoxicity of Compounds that Sensitize Mycobacterium Tuberculosis to Beta-Lactam Antibiotics.; assay type: functional
[4] = Luminescence Cell-Based Dose Retest to Confirm Inhibitors of Cancer Stem Cells. [Related pubchem assays (depositor defined):AID2717, AID2721]; assay type: functional; conditions: Homo sapiens
Streptococcus = assay: GAS UMAA2166 growth inhibition – luminescence, BacTiterGlo, counter-screen for streptokinase expression inhibitor project, dose response (AID 1915); assay type: functional, organism-based;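 further: potency for reduction of bacterial viability or growth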
[5] = loss of viability in HepG2 cells – cell-based, CellTiter-Glo, cherry-picked, cytotoxicity control for Shn3 inhibitor project, dose response (AID 624134); assay type: functional
[6] = test system: Streptococcus sp. 'group A'; assay: Streptococcus pyogenes SK(-)GAS viability under kanamycin – luminescence, BacTiterGlo, confirmation, counter-screen for streptokinase expression inhibitor project, dose response (AID 1900); assay type: functional, organism-based
[7] = non-specific 3'UTR reporter inhibition in Clone20-Shn3RL – cell-based, Renilla luciferase, cherry-picked, counter-screen for Shn3 inhibitor project, dose response (AID 624133); assay type: functional
[8] = reduction of Shn3 3'UTR-driven luciferase in osteoblasts – cell-based, Clone20 osteoblasts, firefly luciferase, cherry-picked, dose response (AID 624132); assay type: functional;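 further: firefly luciferase luminescence from reporter carrying the Shn3 3'UTR in osteoblasts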
Streptokinase A = biological target: T2, Streptokinase A (Streptococcus pyogenes serotype M1, UniProt P10520); assay: viability-normalized secreted streptokinase activity reduction – plasminogen activation absorbance, OD405, dose response (AID 1914); assay type: functional, Streptococcus pyogenes M1 GAS;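 further: secreted streptokinase activity via plasminogen activation per viability signal from cell pellet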
T2 sequence (P10520 whole entry): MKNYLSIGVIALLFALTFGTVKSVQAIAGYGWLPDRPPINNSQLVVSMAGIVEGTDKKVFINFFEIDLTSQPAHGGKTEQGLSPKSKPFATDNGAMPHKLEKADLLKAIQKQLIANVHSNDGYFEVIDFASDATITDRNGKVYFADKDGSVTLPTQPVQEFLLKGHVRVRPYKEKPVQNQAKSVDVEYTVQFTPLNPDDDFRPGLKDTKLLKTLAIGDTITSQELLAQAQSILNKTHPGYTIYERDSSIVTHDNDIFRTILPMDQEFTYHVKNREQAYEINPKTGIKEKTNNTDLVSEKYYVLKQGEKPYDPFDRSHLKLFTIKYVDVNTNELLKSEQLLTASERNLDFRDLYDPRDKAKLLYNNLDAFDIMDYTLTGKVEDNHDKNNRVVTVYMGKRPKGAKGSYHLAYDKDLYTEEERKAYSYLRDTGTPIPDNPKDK

[9] = NIH3T3 cell viability loss – ATP luminescence, mouse fibroblasts, counter-screen, dose response (AID 2010); assay type: functional, cell-based;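 further: cells exposed to compound for about 90 hours before reading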
[10] = Trypanosoma cruzi growth suppression in host cells – NIH3T3 host cells, beta-gal luminescence, confirmation (AID 2044); assay type: functional, cell-based;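 further: intracellular parasites grown in NIH/3T3 mouse fibroblasts as host cells; luminescent beta-galactosidase reporter signal from transgenic T. cruzi replicating inside host cells; inhibitors lower the luminescence signal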
[11] = biological target: T3, Corticotropin-releasing factor receptor 2/Corticotropin-releasing factor-binding protein (Homo sapiens, UniProt P24387+Q13324); assay: Dose Response confirmation of uHTS hits for small molecule antagonists of the CRF-binding protein and CRF-R2 receptor complex.; assay type: functional; conditions: read-out: IC50_Mean
T3 sequence (Q13324 whole entry): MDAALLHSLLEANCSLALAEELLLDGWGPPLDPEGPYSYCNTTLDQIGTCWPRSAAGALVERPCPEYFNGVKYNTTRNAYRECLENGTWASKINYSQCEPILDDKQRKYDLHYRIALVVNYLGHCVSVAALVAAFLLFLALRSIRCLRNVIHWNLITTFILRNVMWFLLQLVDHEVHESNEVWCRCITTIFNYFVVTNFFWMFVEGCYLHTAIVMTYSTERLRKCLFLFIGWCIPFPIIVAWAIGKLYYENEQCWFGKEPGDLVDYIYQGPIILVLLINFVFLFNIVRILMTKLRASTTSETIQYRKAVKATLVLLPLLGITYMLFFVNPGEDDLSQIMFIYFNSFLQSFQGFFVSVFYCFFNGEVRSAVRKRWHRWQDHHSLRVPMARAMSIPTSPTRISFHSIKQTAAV
T3 sequence (P24387 whole entry): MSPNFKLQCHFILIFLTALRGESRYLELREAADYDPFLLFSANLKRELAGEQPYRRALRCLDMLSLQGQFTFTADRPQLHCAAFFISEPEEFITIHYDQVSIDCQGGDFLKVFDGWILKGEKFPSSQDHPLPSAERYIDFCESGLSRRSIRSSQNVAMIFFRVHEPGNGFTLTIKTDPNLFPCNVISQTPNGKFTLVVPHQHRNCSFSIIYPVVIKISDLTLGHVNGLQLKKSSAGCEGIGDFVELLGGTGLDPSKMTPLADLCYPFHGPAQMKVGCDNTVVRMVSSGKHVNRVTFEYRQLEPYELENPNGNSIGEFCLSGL

[12] = blockers of CRF-binding protein–CRF-R2 complex – cell-based, uHTS hits, 384-well, dose response (AID 651639); assay type: functional, Homo sapiens; conditions: read-out: IC50_Mean
[13] = biological target: T3, Corticotropin-releasing factor receptor 2/Corticotropin-releasing factor-binding protein; assay: activators of CRF receptor 2 with binding protein – uHTS hits, confirmation (AID 602473); assay type: functional; conditions: read-out: EC50_Mean
Vero = assay: viability of Vero cells under compound – cytotoxicity control for flavivirus capping enzyme inhibitors (AID 588742); assay type: functional; conditions: Chlorocebus sabaeus
[14] = fluconazole-exposed Candida albicans growth modulators – fluorescence, retest, confirmation (AID 2467); assay type: functional, cell-based
[15] = NIH-3T3 fibroblast cytotoxicity, dose response, cytotoxicity control, cell-based, fluorescence, Alamar Blue, secondary assay (AID 2327); assay type: functional;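 further: NIH-3T3 mouse fibroblasts cultured with fluconazole at 8 µg/mL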
[16] = biological target: Heat shock protein HSP 90-alpha (Homo sapiens, UniProt P07900); assay type: functional, organism-based
Genome polyprotein = Genome polyprotein (dengue virus type 2, UniProt P29990); assay: flavivirus cap methylation enzyme inhibition – biochemical, confirmation dose response, primary screen (AID 588689); assay type: functional
Chain of Genome polyprotein (P29990 2492-3391 limits assumed): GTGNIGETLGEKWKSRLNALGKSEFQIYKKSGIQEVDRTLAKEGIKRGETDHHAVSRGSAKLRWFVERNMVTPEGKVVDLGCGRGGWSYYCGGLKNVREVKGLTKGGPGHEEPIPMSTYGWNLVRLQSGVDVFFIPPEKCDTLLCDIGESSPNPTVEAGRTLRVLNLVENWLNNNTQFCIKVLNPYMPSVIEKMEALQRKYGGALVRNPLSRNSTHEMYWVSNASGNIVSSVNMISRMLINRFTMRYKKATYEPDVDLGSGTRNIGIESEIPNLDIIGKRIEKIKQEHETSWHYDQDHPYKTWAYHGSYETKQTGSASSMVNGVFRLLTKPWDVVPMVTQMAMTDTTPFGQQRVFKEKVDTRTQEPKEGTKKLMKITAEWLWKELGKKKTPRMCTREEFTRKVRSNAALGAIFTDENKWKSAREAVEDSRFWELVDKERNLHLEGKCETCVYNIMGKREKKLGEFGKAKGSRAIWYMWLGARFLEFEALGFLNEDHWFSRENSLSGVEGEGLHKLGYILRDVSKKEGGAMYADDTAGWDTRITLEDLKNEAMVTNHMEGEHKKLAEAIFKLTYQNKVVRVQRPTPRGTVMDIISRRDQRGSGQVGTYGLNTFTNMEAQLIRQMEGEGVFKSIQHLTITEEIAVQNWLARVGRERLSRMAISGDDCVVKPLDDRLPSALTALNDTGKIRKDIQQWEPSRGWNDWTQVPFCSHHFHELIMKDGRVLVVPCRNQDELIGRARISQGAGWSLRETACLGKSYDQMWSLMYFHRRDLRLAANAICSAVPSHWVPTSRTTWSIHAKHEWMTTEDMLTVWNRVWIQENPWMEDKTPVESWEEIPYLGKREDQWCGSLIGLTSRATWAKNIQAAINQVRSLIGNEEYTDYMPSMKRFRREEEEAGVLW

[17] = biological target: T4, Zinc finger protein mex-5 (Caenorhabditis elegans, UniProt Q9XUB2); assay: potency of MEX-5 RNA-binding blockers – biochemical, C. elegans, fluorescence polarization, dose response (AID 1960)
T4 sequence (Q9XUB2 whole entry): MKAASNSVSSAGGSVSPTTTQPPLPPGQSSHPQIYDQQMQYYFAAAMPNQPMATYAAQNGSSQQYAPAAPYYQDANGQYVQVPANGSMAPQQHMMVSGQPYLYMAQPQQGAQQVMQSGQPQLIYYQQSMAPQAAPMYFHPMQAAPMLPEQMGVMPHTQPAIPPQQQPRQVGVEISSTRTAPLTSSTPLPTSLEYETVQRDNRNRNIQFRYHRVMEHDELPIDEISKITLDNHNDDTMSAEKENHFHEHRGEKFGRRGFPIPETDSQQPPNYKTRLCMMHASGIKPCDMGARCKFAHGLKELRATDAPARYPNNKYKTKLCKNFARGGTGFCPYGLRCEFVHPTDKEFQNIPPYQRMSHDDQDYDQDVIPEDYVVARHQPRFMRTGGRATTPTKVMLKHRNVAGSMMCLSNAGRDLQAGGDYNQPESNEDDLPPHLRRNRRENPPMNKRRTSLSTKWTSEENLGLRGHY

[18] = biological target: T5, RNA-binding protein pos-1 (Caenorhabditis elegans, UniProt G5EF15); assay: disruptors of C. elegans POS-1 RNA interaction – biochemical, fluorescence polarization, dose response (AID 1964);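 further: purified POS-1 fused to maltose binding protein made in E. coli; potency of compounds blocking POS-1 binding to fluorescent RNA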
T5 sequence (G5EF15 whole entry): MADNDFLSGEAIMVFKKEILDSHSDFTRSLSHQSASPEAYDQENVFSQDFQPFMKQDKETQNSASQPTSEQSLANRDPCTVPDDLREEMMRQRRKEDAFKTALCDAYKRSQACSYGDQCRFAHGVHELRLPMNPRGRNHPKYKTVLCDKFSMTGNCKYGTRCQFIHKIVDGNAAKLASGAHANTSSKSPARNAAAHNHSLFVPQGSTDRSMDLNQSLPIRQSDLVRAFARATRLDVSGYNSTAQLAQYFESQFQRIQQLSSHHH

With `Cc1cc(CN2CCCC(C(=O)Nc3ccc(-c4nc5ccccc5[nH]4)cc3)C2)n[nH]1` (stereo not drawn) the EC50 [1] was 0.0003 µM (active).

In the case of `COc1ccccc1NC(=S)NCCSc1ccc(Cl)cc1`, the IC50 [2] is reported as > 64 µM (inactive).

In the case of `CN1CCN(c2ccccc2NC(=O)c2ccc(-c3ccc(Cl)c(Cl)c3)o2)CC1`, the CC50 [3] is reported as 25.2 µM (active) and the AC50 [4] is reported as 4.06 µM (active).

For `CN(C)C(CNC(=O)CCc1nc2ccccc2s1)c1ccccc1` (stereo not drawn), the EC50 [1] was 0.0187 µM (active).

For `COc1ccc(C2=NN(C(=O)c3ccccc3)C(c3ccc(OC)c(OC)c3)C2)c(O)c1` (stereo not drawn), the EC50 [1] was 9.44 µM (active).

In the case of `CCCn1c(NC(=O)c2ccc(Cl)c(S(=O)(=O)N3CCCC3)c2)nc2ccccc21`, the EC50 (Streptococcus) is reported as 11.6 µM (active), the AC50 [5] is reported as 38.8 µM (active) and the EC50 [6] is reported as 3.14 µM (active). For the same compound, the AC50 [7] was 10.9 µM (active), the EC50 [1] was 1.06 µM (active) and the AC50 [8] was 8.39 µM (active). For the same compound, the EC50 (Streptokinase A) was > 150 µM (not active), the EC50 [9] was 6.63 µM (active) and the EC50 [10] was 2.63 µM (active).

In the case of `COc1ccc(CN2CCCCC2C)cc1C` (stereo not drawn), the IC50 [11] is reported as < 0.368 µM (active), the IC50 [12] is reported as 20 µM (active) and the EC50 [13] is reported as 2.45 µM (active).

In the case of `COc1cc(NC(=O)c2cc(-c3cccnc3)nc3ccc(Br)cc23)cc(OC)c1`, the CC50 [3] is reported as > 40 µM (active).

In the case of `CCCN1CCN(C(=O)CCCNC(=O)Cn2cnc3sc(C)c(C)c3c2=O)CC1`, the IC50 [2] is reported as > 64 µM (inactive).

With `CC(C)C1Nc2c(O)cc(Cl)c([N+](=O)[O-])c2C2C=CCC21` (stereo not drawn) the EC50 (Streptococcus) was 6.36 µM (active), the EC50 [6] was 3.07 µM (active) and the CC50 (Vero) was 27.8 µM (active). The EC50 [14] was 0.227 µM (active), the EC50 (Streptokinase A) was > 150 µM (not active) and the EC50 [15] was 21.9 µM (inconclusive). The AC50 [16] was 8.49 µM (active), the IC50 (Genome polyprotein) was 68.9 µM (active) and the EC50 [17] was 58.5 µM (active). For the same compound, the EC50 [18] was > 300 µM (not active).

In the case of `Cc1ccc(/C=N/n2c(S)nnc2-c2cccc(Cl)c2)o1`, the IC50 [11] is reported as < 0.368 µM (active), the IC50 [12] is reported as > 20 µM (inactive) and the EC50 [13] is reported as > 53 µM (inactive).
